# Patent publication US10829506B2, “Amino- or ammonium-containing sulfonic acid, phosphonic acid and carboxylic acid derivatives and their medical use” (GRI Bio, Inc., priority 2011, dated 2020)
# pIC50: −log10 of the molar value. Read-outs that look alike come from different tables or passages of the source.
# Columns and labels:
# [1] = tested on: RBL-2H3 cells; assay: Inhibition of mast cell degranulation (β-hexosaminidase release); type: cell-based, rat; details: for pIC50: RBL-2H3 cells sensitized with anti-DNP IgE, triggered with DNP-HSA, 1 h preincubation
# From the text: Mast cells are key effector cells involved in allergic and inflammatory diseases, and the Rat Basophilic Leukemia clone 2H3 (RBL-2H3) cell line is a commonly used model of allergen dependent immune modulator release (degranulation) in mast cells. On their surface, they express the high affinity receptor for IgE (FcεRI). Upon binding of antigen-specific IgE to the receptor, cells become sensitized to the IgE specific antigen (allergen). When IgE-sensitized cells then encounter multivalent antigen, the antigen clusters IgE-FcεRI complexes and initiates a signal transduction cascade that leads to degranulation, that is, the release of inflammatory mediators, such as cytokines, eicosanoids, histamine and enzymes. The assay can be used as a screening method to identify immune-modulating compounds, in particular compounds useful in the medical management of allergic and inflammatory diseases and asthma, β-hexosaminidase was previously shown to be released with the same kinetics as histamine (Schwartz et al., J Immunology; 123:1445-1450 (1979)), thus offering a simple means to monitor degranulation. The RBL-2H3 cell line has been successfully used to identify compounds with anti-allergic activity (Choo et al. Planta Med., 69:518-522 (2003)).
# Cell Culture: RBL-2H3 cells obtained from the German Collection of Microorganisms and Cell Cultures (ACC312) (Braunschweig, Germany) were maintained in 70% Minimum Essential Medium with Earle's Salts, 20% RPMI 1640 Medium, 10% FBS and 2 mM l-glutamine in 95% air/5% CO2 at 37° C. and routinely checked for mycoplasma contamination. Cells were passaged every 3-4 days; after washing cells once with 35 ml PBS cells were incubated 8 min with 5 ml 0.05% Trypsin-EDTA solution at 37° C. Cells were removed from the incubator, 15 ml culture medium was added and cells were resuspended by repeated pipetting.
# Cell seeding: cells were harvested with Trypsin-EDTA as described and 50-100 μl cell suspension seeded Into Costar CellBind 24 well cluster plates (no. 3337). Plates were kept for 30 min at RT under the sterile hood before being transferred to the incubator. Cells were used within one or two days after seeding.
# For sensitization, cells for immediate use were sensitized 6-12 h after plating; cells to be used the following day were sensitized 26-38 h after plating. Culture plates were removed from the incubator and checked for cell growth and contamination. The medium was discarded and cells were sensitized with anti-DNP IgE (0.4 μg/ml) in 0.4 ml culture medium overnight. Following overnight sensitization, cells were washed with 0.8 ml pre-warmed TyB and 0.38 ml test compound or vehicle control (supplemented or not with 1% FBS) were added to duplicate wells. Samples were adjusted to contain 1% vehicle for test compounds dissolved in organic solvents. Cells were incubated for 1 h at 37° C. At the end of the incubation period, cells were routinely stimulated with 20 μl DNP-HSA (2 μg/ml; final concentration 0.1 μg/ml) diluted in TyB and cells were incubated for 15 min at 37° C. Alternatively, cells were stimulated with 20 μl […] (final concentration 0.25 μM) or 20 nM […] (final concentration 0.25 μM), both in the absence or presence of 20 nM PMA (final concentration).
# Plates were removed from the incubator and immediately centrifuged at 4° C. for 5 min at 250×g and transferred to an ice bath. Aliquots of supernatants, 25 μl, were transferred to 96-well plates. Remaining supernatant was aspirated from control wells and cells were lysed in […] lysis buffer for 5 min at RT on an orbital shaker at 450 rpm under non-sterile conditions. After lysis, 25 μl aliquots of lysates were transferred to 96-well plates.
# MUG substrate solution, 100 μl, were added to supernatant and lysate samples and plates were incubated 30 min at 37° C. The reaction was terminated by addition of 150 μl stop solution. Fluorescence was measured at 365 nm excitation and 440 nm emission wavelengths. […]
# [2] = tested on: RBL-2H3 cells; assay: Maximum tolerated concentration (cytotoxicity by lactate dehydrogenase release); type: cell-based, rat
# From the text: A commercially available cytotoxicity test was used (Promega Cytotox-One cat. #67891).
# The safety index (SI) of a test compound Is the ratio between the maximum tolerated concentration and the 1C50 and is used as a measure of the relative safety of the test compound.
# [3] = Rattus norvegicus, 25 μM, RBL-2H3 cells
# [4] = highest concentration not causing cytotoxicity, LDH release
# [5] = ratio between maximum tolerated concentration and IC50
structure (smiles),measurement,setting,value
"CCCCCCCCCCCCCC[N@+]1(CCCS(=O)(=O)[O-])CCC[C@H](C(=O)N(CC)CC)C1 (racemic) [Compound 2c, Trans-N-Tetradecyl-N-(3-Sulfonatopropyl)-3-Diethylaminocarbonyl-Piperidinium]",inhibition at 25 µM,[1]; [3],50%
same,MTC (maximum tolerated concentration),[2]; [4],100 µM
"CCCCCCCCCCCCCCN(C)CCCS(=O)(=O)O [Compound 1b, 3-(N-Methyltetracylammonio)Propanesulfonate]",pIC50,[1],5.37
same,MTC (maximum tolerated concentration),[2],100 µM
same,"SI (safety index, ratio MTC/IC50)",[2],23.3
"CCCCCCCCCCCCCC[N+](C)(C)CCS(=O)(=O)[O-] [Compound 1d, 2-(N,N-Dimethyltetradecylammonio)Ethanesulfonate]",pIC50,[1]; Rattus norvegicus,5.41
same,MTC (maximum tolerated concentration),[2]; [4],100 µM
same,"SI (safety index, ratio MTC/IC50)",[2]; [5],25.6
"CCCCCCCCCCCCCC[N+](C)(C)CCCCS(=O)(=O)[O-] [Compound 1e, 4-(N1N-Dimethylmyristylammonio)Butanesulfonate]",pIC50,[1],5.43
same,MTC (maximum tolerated concentration),[2],150 µM
same,"SI (safety index, ratio MTC/IC50)",[2],40.5
"CCCCCCCCCCCCCC[N+](C)(C)CC(CC)CS(=O)(=O)[O-] (centres unmarked) [Compound 1f, 2-((Dimethyl(Tetradecyl)Ammonio)Methyl)Butane-1-Sulfonate]",pIC50,[1]; Rattus norvegicus,5.40
same,MTC (maximum tolerated concentration),[2]; [4],75 µM
same,"SI (safety index, ratio MTC/IC50)",[2]; [5],18.8
"CCCCCCCCCCCCCCCCCC[N+](C)(C)CCCS(=O)(=O)[O-] [Compound 1g, 3-(N,N-Dimethyloctadecylammonio)Propanesulfonate]",pIC50,[1]; Rattus norvegicus,5.02
same,MTC (maximum tolerated concentration),[2]; [4],50 µM
same,"SI (safety index, ratio MTC/IC50)",[2]; [5],5.3
"CCCCCCCCCCCCCCCC[N+](C)(C)CCCS(=O)(=O)[O-] [Compound 1h, 3-(N,N-dimethyIpalmitylammonio)propansulfonate]",pIC50,[1],5.43
same,MTC (maximum tolerated concentration),[2],50 µM
same,"SI (safety index, ratio MTC/IC50)",[2],13.5
"CCCCCCCCCCCC[N+](C)(C)CCCS(=O)(=O)[O-] [Compound 1i, 3-(N,N-dimethyldodecyl-ammonio) propanesulfonate]",pIC50,[1],5.39
same,MTC (maximum tolerated concentration),[2],200 µM
same,"SI (safety index, ratio MTC/IC50)",[2],48.8
"CCCCCCCCCCCCCC[N+](C)(C)CC(=O)[O-] [Compound 1j, N-Tetradecyl-N,N-Dimethylglycine]",pIC50,[1],5.29
same,MTC (maximum tolerated concentration),[2]; [4],75 µM
same,"SI (safety index, ratio MTC/IC50)",[2]; [5],14.7
"CCCCCCCCCCCCCC[N+](C)(C)CCC(=O)[O-] [Compound 1k, 3-(Dimethyl(Tetradecyl)Ammonio)Propanoate]",pIC50,[1]; Rattus norvegicus,5.28
same,MTC (maximum tolerated concentration),[2]; [4],100 µM
same,"SI (safety index, ratio MTC/IC50)",[2]; [5],18.9
"CCCCCCCCCCCC[N+](C)(C)CCC(=O)[O-] [Compound 1m, 3-(Dimethyl(Dodecyl)Ammonio)Propanoate]",inhibition at 25 µM,[1]; [3],73%
same,MTC (maximum tolerated concentration),[2]; [4],100 µM
"CCCCCCCCCCCCCCN(C)CCCC(=O)O [Compound 1n, 4-(Methyl(Tetradecyl)Ammonio)Butanoate]",pIC50,[1]; Rattus norvegicus,5.10
same,MTC (maximum tolerated concentration),[2]; [4],100 µM
same,"SI (safety index, ratio MTC/IC50)",[2]; [5],12.5
"CCCCCCCCCCCCCC[N+](C)(C)CCCC(=O)[O-] [Compound 1o, 4-(Dimethyl(Tetradecyl)Ammonio)Butanoate]",inhibition at 25 µM,[1]; [3],65%
same,MTC (maximum tolerated concentration),[2]; [4],100 µM
"CCCCCCCCCCCC[N+](C)(C)CC(=O)[O-] [Compound 1p, N-Dodecyl-N,N-Dimethylglycine]",Inhibition of degranulation: % inhibition at 25 μM,"[1]; 25 μM, RBL-2H3 cells",50%
same,MTC (maximum tolerated concentration),[2],100 µM
"CCCCCCCCCCCCN(C)CCS(=O)(=O)O [Compound 1q, 2-(N-Methyldodecylammonio)Ethanesulfonate]",pIC50,[1]; Rattus norvegicus,5.06
same,MTC (maximum tolerated concentration),[2]; [4],200 µM
same,"SI (safety index, ratio MTC/IC50)",[2]; [5],22.7
"CCCCCCCCCCCC[N+](C)(C)CCS(=O)(=O)[O-] [Compound 1r, 2-(N,N-Dimethyldodecylammonio)Ethanesulfonate]",pIC50,[1]; Rattus norvegicus,5.38
same,MTC (maximum tolerated concentration),[2]; [4],200 µM
same,"SI (safety index, ratio MTC/IC50)",[2]; [5],47.6
"CCCCCCCCCCCCCCN(C)CCS(=O)(=O)O [Compound 1s, 2-(N-Methyltetradecylammonio)Ethanesulfonate]",pIC50,[1]; Rattus norvegicus,5.25
same,MTC (maximum tolerated concentration),[2]; [4],100 µM
same,"SI (safety index, ratio MTC/IC50)",[2]; [5],17.9
"CCCCCCCCCCCC[N+](C)(C)CCCP(=O)(O)O [Compound 1t, 3-(N,N-Dimethyldodecylammonio)Propylphosphonic Acid]",pIC50,[1],5.21
same,MTC (maximum tolerated concentration),[2]; [4],200 µM
same,"SI (safety index, ratio MTC/IC50)",[2]; [5],32.8
"CCCCCCCCCCCCCCN(C)CCCP(=O)(O)O [Compound 1u, 3-(N-Methyl-N-Tetradecylamino)Propylphosphonic Acid (Betaine)]",pIC50,[1],5.23
same,MTC (maximum tolerated concentration),[2]; [4],200 µM
same,"SI (safety index, ratio MTC/IC50)",[2]; [5],33.9
"CCCCCCCCCCCCCCCCN(C)CCCP(=O)(O)O [Compound 1v, 3-(N-Methyl-N—Hexadecylamino)Propylphosphonic Acid]",pIC50,[1]; Rattus norvegicus,5.06
same,MTC (maximum tolerated concentration),[2]; [4],200 µM
same,"SI (safety index, ratio MTC/IC50)",[2]; [5],22.7
"Br.CCCCCCCCCCCCCCCCN(C)CCCP(=O)(OCC)OCC [Compound 1w, 3-(N-Methyl-N—Hexadecylamino)Propylphosphonic Acid Diethylester Hydrobromide]",pIC50,[1]; Rattus norvegicus,5.16
same,MTC (maximum tolerated concentration),[2]; [4],200 µM
same,"SI (safety index, ratio MTC/IC50)",[2]; [5],29.0
"Br.CCCCCCCCCCCCCCN(C)CCCP(=O)(OCC)OCC [Compound 1x, 3-(N-Methyl-N-Tetradecylamino)Propylphosphonic Acid Diethyiester Hydrobromide]",pIC50,[1],5.26
same,MTC (maximum tolerated concentration),[2]; [4],100 µM
same,"SI (safety index, ratio MTC/IC50)",[2]; [5],18.2
"CCCCCCCCCCCCCCCC[N+]1(CCCS(=O)(=O)[O-])CCCCC1 [Compound 2a, N—Hexadecyl-N-(3-Sulfonatopropyl)Piperidinium]",pIC50,[1]; Rattus norvegicus,5.35
same,MTC (maximum tolerated concentration),[2]; [4],50 µM
same,"SI (safety index, ratio MTC/IC50)",[2]; [5],11.1
"CCCCCCCCCCCCCCCC[N+]1(CCCS(=O)(=O)[O-])CCC(O)CC1 (centres unmarked) [Compound 2b, 1-Hexadecyl-1-(3-Sulfonatopropyl)-4-Hydroxypiperidinium]",pIC50,[1]; Rattus norvegicus,5.37
same,MTC (maximum tolerated concentration),[2]; [4],50 µM
same,"SI (safety index, ratio MTC/IC50)",[2]; [5],11.6
"CCCCCCCCCCCCCCCCOP(=O)([O-])OCC[N+](C)(C)C [Miltefosine, reference compound]",pIC50,[1]; Rattus norvegicus,5.38
same,MTC (maximum tolerated concentration),[2]; rat,25 µM
same,"SI (safety index, ratio MTC/IC50)",[2]; rat,6.0
